Results published in patent US8063099B2, “Trans-3-aza-bicyclo[3.1.0]hexane derivatives” (Actelion Pharmaceuticals Ltd., priority 2007, dated 2011).

Columns and labels:
human orexin-2 receptor = target: T1, human orexin-2 receptor (Homo sapiens, UniProt O43614); assay: Intracellular calcium measurements (FLIPR), orexin receptor antagonistic activity; assay type: cell-based; conditions: FLIPR2; CHO cells expressing human orexin-2 receptor; 3 nM orexin-A; read-out: OX2 IC50
T1 construct: expressed in transfected cells; host or cells: Chinese hamster ovary (CHO) cells, G418 selection
T1 sequence (O43614 1-444): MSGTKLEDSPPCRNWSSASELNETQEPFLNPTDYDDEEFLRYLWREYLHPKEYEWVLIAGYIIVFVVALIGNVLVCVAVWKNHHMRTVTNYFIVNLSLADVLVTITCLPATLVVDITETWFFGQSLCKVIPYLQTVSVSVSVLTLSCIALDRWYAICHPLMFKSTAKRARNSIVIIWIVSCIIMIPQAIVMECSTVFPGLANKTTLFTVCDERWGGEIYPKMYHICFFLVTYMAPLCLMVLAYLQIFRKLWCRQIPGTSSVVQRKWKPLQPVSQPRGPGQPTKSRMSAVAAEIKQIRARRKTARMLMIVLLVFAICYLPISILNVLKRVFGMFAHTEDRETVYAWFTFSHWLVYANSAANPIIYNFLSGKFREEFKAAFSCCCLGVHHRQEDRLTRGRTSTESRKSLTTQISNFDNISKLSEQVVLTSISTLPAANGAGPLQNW
Experimental: (§1) The orexin receptor antagonistic activity of the compounds of formula (I) is determined in accordance with one of the following experimental methods.
(§2) Intracellular Calcium Measurements:
(§3) Chinese hamster ovary (CHO) cells expressing the human orexin-1 receptor and the human orexin-2 receptor, respectively, are grown in culture medium (Ham F-12 with L-Glutamine) containing 300 μg/ml G418, 100 U/ml penicillin, 100 μg/ml streptomycin and 10% heat inactivated fetal calf serum (FCS). The cells are seeded at 20'000 cells/well into 384-well black clear bottom sterile plates (Greiner). The seeded plates are incubated overnight at 37° C. in 5% CO2.
(§4) Human orexin-A as an agonist is prepared as 1 mM stock solution in MeOH:water (1:1), diluted in HBSS containing 0.1% bovine serum albumin (BSA), NaHCO3:0.375 g/l and 20 mM HEPES for use in the assay at a final concentration of 3 nM.
(§5) Antagonists are prepared as 10 mM stock solution in DMSO, then diluted in 384-well plates, first in DMSO, then in HBSS containing 0.1% bovine serum albumin (BSA), NaHCO3: 0.375 g/l and 20 mM HEPES.
(§6) On the day of the assay, 50 μl of staining buffer (HBSS containing 1% FCS, 20 mM HEPES, NaHCO3: 0.375 g/l, 5 mM probenecid (Sigma) and 3 μM of the fluorescent calcium indicator fluo-4 AM (1 mM stock solution in DMSO, containing 10% pluronic) is added to each well.
(§7) The 384-well cell-plates are incubated for 50 min at 37° C. in 5% CO2 followed by equilibration at RT for 30-120 min before measurement.
(§8) Within the Fluorescent Imaging Plate Reader (FLIPR2 or FLIPR Tetra, Molecular Devices), antagonists are added to the plate in a volume of 10 μl/well, incubated for 10 min and finally 10 μl/well of agonist is added. Fluorescence is measured for each well at 1 second intervals, and the height of each fluorescence peak is compared to the height of the fluorescence peak induced by 3 nM orexin-A with vehicle in place of antagonist. For each antagonist, the IC50 value (the concentration of compound needed to inhibit 50% of the agonistic response) is determined. With the FLIPR Tetra, non-optimized and optimized conditions were used. Optimized conditions were achieved by adjustment of pipetting speed and cell splitting regime. The calculated IC50 values of the compounds may fluctuate depending on the daily cellular assay performance. Fluctuations of this kind are known to those skilled in the art.

human orexin-1 receptor = target: T2, human orexin-1 receptor (Homo sapiens, UniProt O43613); assay: as above; assay type: cell-based; conditions: FLIPR2; CHO cells expressing human orexin-1 receptor; 3 nM orexin-A; read-out: OX1 IC50
T2 construct: expressed in transfected cells; host or cells: Chinese hamster ovary (CHO) cells, G418 selection
T2 sequence (O43613 1-425): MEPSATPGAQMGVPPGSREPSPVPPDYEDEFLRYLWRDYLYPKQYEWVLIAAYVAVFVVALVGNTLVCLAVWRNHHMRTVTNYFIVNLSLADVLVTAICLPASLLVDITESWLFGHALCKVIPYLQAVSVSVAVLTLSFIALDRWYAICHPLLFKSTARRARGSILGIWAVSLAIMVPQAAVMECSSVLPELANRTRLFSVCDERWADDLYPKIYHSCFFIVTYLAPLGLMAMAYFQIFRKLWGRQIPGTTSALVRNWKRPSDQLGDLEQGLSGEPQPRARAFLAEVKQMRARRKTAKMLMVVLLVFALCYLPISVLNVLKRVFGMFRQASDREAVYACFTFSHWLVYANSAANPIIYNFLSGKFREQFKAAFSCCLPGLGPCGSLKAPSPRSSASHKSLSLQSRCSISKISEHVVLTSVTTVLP
Experimental: as §1, §2, §3, §4, §5, §6, §7, §8

| Structure (SMILES) | IC50 (human orexin-2 receptor) [nM] | IC50 (human orexin-1 receptor) [nM] |
| --- | --- | --- |
| O=C(NC[C@@H]1[C@H]2C[C@H]2CN1C(=O)c1ccccc1-c1ccccc1)c1cccc2occc12 [Example 2, Benzofuran-4-carboxylic acid[(1S,2S,5R)-3-(biphenyl-2-carbonyl)-3-aza-bicyclo[3.1.0]hex-2-ylmethyl]-amide] | 102 | 34 |
| Cc1nc(C(=O)N2C[C@@H]3C[C@@H]3[C@H]2CNC(=O)c2c(C)nc3sccn23)c(-c2ccccc2C)s1 [Example 11, 6-Methyl-imidazo[2,1-b]thiazole-5-carboxylic acid[(1S,2S,5R)-3-(2-methyl-5-o-tolyl-thiazole-4-carbonyl)-3-aza-bicyclo[3.1.0]hex-2-ylmethyl]-amide] | 66 | 14 |
| Cc1nc2sccn2c1C(=O)NC[C@@H]1[C@H]2C[C@H]2CN1C(=O)c1ccccc1-c1ccccc1F [Example 19, 6-Methyl-imidazo[2,1-b]thiazole-5-carboxylic acid[(1S,2S,5R)-3-(2′-fluoro-biphenyl-2-carbonyl)-3-aza-bicyclo[3.1.0]hex-2-ylmethyl]-amide] | 174 | 22 |
| Cc1ncc(C(=O)N2C[C@@H]3C[C@@H]3[C@H]2CNC(=O)c2c(C)nc3sccn23)c(-c2ccccc2)n1 [Example 23, 6-Methyl-imidazo[2,1-b]thiazole-5-carboxylic Acid[(1S,2S,5R)-3-(2-methyl-4-phenyl-pyrimidine-5-carbonyl)-3-aza-bicyclo[3.1.0]hex-2-ylmethyl]-amide] | 338 | 35 |
| Cc1nc2sccn2c1C(=O)NC[C@@H]1[C@H]2C[C@H]2CN1C(=O)c1ccccc1-c1csc(N)n1 [Example 24, 6-Methyl-imidazo[2,1-b]thiazole-5-carboxylic acid{(1S,2S,5R)-3-[2-(2-amino-thiazol-4-yl)-benzoyl]-3-aza-bicyclo[3.1.0]hex-2-ylmethyl}-amide] | 647 | 102 |
| Cc1cccc(-c2sc(Br)nc2C(=O)N2C[C@@H]3C[C@@H]3[C@H]2CNC(=O)c2c(C)nc3sccn23)c1 [Example 29, 6-Methyl-imidazo[2,1-b]thiazole-5-carboxylic acid[(1S,2S,5R)-3-(2-bromo-5-m-tolyl-thiazole-4-carbonyl)-3-aza-bicyclo[3.1.0]hex-2-ylmethyl]-amide] | 27 | 4 |
| Cc1nc2sccn2c1C(=O)NC[C@@H]1[C@H]2C[C@H]2CN1C(=O)c1ccccc1C1CCCCC1 [Example 31, 6-Methyl-imidazo[2,1-b]thiazole-5-carboxylic acid[(1S,2S,5R)-3-(2-cyclohexyl-benzoyl)-3-aza-bicyclo[3.1.0]hex-2-ylmethyl]-amide] | 167 | 960 |
| Cc1nc2sccn2c1C(=O)NC[C@@H]1[C@H]2C[C@H]2CN1C(=O)c1ccccc1-c1cccs1 [Example 32, 6-Methyl-imidazo[2,1-b]thiazole-5-carboxylic acid[(1S,2S,5R)-3-(2-thiophen-2-yl-benzoyl)-3-aza-bicyclo[3.1.0]hex-2-ylmethyl]-amide] | 55 | 15 |
| Cc1nc(-c2cccc(F)c2)c(C(=O)N2C[C@@H]3C[C@@H]3[C@H]2CNC(=O)c2c(C)nc3sccn23)s1 [Example 37, 6-Methyl-imidazo[2,1-b]thiazole-5-carboxylic acid{(1S,2S,5R)-3-[4-(3-fluoro-phenyl)-2-methyl-thiazole-5-carbonyl]-3-aza-bicyclo[3.1.0]hex-2-ylmethyl}-amide] | 35 | 85 |
| Cc1cccc(-c2sc(C)nc2C(=O)N2C[C@@H]3C[C@@H]3[C@H]2CNC(=O)c2cc(F)cc3c2OCOC3)c1 [Example 42, 6-Fluoro-4H-benzo[1,3]dioxine-8-carboxylic Acid[(1S,2S,5R)-3-(2-methyl-5-m-tolyl-thiazole-4-carbonyl)-3-aza-bicyclo[3.1.0]hex-2-ylmethyl]-amide] | 12 | 49 |
| Cc1cccc(-c2sc(C)nc2C(=O)N2C[C@@H]3C[C@@H]3[C@H]2CNC(=O)c2cccc3c2OC(C)(C)C3)c1 [Example 43, 2,2-Dimethyl-2,3-dihydro-benzofuran-7-carboxylic acid[(1S,2S,5R)-3-(2-methyl-5-m-tolyl-thiazole-4-carbonyl)-3-aza-bicyclo[3.1.0]hex-2-ylmethyl]-amide] | 19 | 26 |
| Cc1cccc(-c2sc(C)nc2C(=O)N2C[C@@H]3C[C@@H]3[C@H]2CNC(=O)c2cccc(C(F)(F)F)c2)c1 [Example 45, N-[(1S,2S,5R)-3-(2-Methyl-5-m-tolyl-thiazole-4-carbonyl)-3-aza-bicyclo[3.1.0]hex-2-ylmethyl]-3-trifluoromethyl-benzamide] | 61 | 110 |
| Cc1cccc(-c2sc(C)nc2C(=O)N2C[C@@H]3C[C@@H]3[C@H]2CNC(=O)c2c(C)noc2C)c1 [Example 51, 3,5-Dimethyl-isoxazole-4-carboxylic Acid[(1S,2S,5R)-3-(2-methyl-5-m-tolyl-thiazole-4-carbonyl)-3-aza-bicyclo[3.1.0]hex-2-ylmethyl]-amide] | 41 | 81 |
| Cc1cccc(-c2sc(C)nc2C(=O)N2C[C@@H]3C[C@@H]3[C@H]2CNC(=O)c2cccc3ccccc23)c1 [Example 52, Naphthalene-1-carboxylic acid[(1S,2S,5R)-3-(2-methyl-5-m-tolyl-thiazole-4-carbonyl)-3-aza-bicyclo[3.1.0]hex-2-ylmethyl]-amide] | 228 | 155 |
| Cc1cccc(-c2sc(C)nc2C(=O)N2C[C@@H]3C[C@@H]3[C@H]2CNC(=O)c2nccc3ccccc23)c1 [Example 54, Isoquinoline-1-carboxylic Acid[(1S,2S,5R)-3-(2-methyl-5-m-tolyl-thiazole-4-carbonyl)-3-aza-bicyclo[3.1.0]hex-2-ylmethyl]-amide] | 18 | 26 |
| Cc1cccc(-c2sc(C)nc2C(=O)N2C[C@@H]3C[C@@H]3[C@H]2CNC(=O)c2n[nH]c3ccccc23)c1 [Example 58, 1H-Indazole-3-carboxylic Acid[(1S,2S,5R)-3-(2-methyl-5-m-tolyl-thiazole-4-carbonyl)-3-aza-bicyclo[3.1.0]hex-2-ylmethyl]-amide] | 57 | 37 |
| Cc1nc(C(=O)N2C[C@@H]3C[C@@H]3[C@H]2CNC(=O)c2cccc3c2OC(C)(C)C3)c(-c2cccc(Cl)c2)s1 [Example 73, 2,2-Dimethyl-2,3-dihydro-benzofuran-7-carboxylic Acid{(1S,2S,5R)-3-[5-(3-chloro-phenyl)-2-methyl-thiazole-4-carbonyl]-3-aza-bicyclo[3.1.0]hex-2-ylmethyl}-amide] | 9 | 21 |
| Cc1nc(C(=O)N2C[C@@H]3C[C@@H]3[C@H]2CNC(=O)c2cccc(Br)c2)c(-c2cccc(Cl)c2)s1 [Example 74, 3-Bromo-N-{(1S,2S,5R)-3-[5-(3-chloro-phenyl)-2-methyl-thiazole-4-carbonyl]-3-aza-bicyclo[3.1.0]hex-2-ylmethyl}-benzamide] | 48 | 84 |
